According to patent publication US20210221866A1, “PROTEASE-RESISTANT LIPIDATED GLP-1 ANALOGS” (MEDIMMUNE LIMITED, priority 2015, published 2021):
pEC50: −log10 of the molar value. Like-named read-outs stand apart in the source and are kept apart here. One block for each compound: values may come before it. Numbered stars: 1 amine (or outer) side, 2 acyl side, 3 side chain; on linkers, the order of the positions; unused ones are H or OH. Square brackets hold non-standard residues; d marks the D form. Side chains are listed from the residue outwards. Peptide text beside a SMILES is read from it. * marks the point of attachment. C18 diacid = O=C(O)CCCCCCCCCCCCCCCCC(=O)*; γGlu = O=C(O)[C@H](CCC(=O)[*:2])N[*:1]; Palmitoyl = CCCCCCCCCCCCCCCC(=O)*; αMeF = C[C@](N)(Cc1ccccc1)C(=O)O; αMeK = C[C@](N)(CCCCN)C(=O)O; Lauroyl = CCCCCCCCCCCC(=O)*; αMeS = C[C@](N)(CO)C(=O)O; AEEA = NCCOCCOCC(=O)O; Aib = CC(C)(N)C(=O)O

Key:
[1] = target: T1, recombinant Neprilysin (Homo sapiens, UniProt P08473); experiment: Proteolytic resistance to neprilysin (% remaining peptide, RP-HPLC AUC); type: in vitro ADME; conditions: t = 0 (baseline); 37° C., pH 8.3; enzyme:peptide ~1:33 for non-lipidated, ~1:2.5 for lipidated peptides
T1 construct: purchased R&D Systems 1182-ZNC-010

[2] = target: T2, porcine pancreatic pepsin (Sus scrofa, UniProt P00791); experiment: Proteolytic resistance to pepsin (% remaining intact peptide, RP-HPLC AUC); type: in vitro ADME; conditions: t = 0; 37° C., pH 2.0
T2 construct: purchased Sigma P7012
Procedure: Pepsin: Lyophilized porcine pancreatic pepsin (Sigma: P7012) was reconstituted to afford a solution of 200 μg/mL (˜500 units/mL) in assay buffer (0.1 M HCl, pH 2.0) to give the enzyme stock solution. […] Ratio enzyme (units):peptide (moles) ˜1:6. […] Ratio enzyme (units):peptide (μmoles) ˜2:1.
Lyophilized porcine pancreatic pepsin (Sigma: P7012) was reconstituted to […] (˜500 units/mL) in assay buffer ([…], pH 2.0) to give the enzyme stock solution.

[3] = target: porcine pancreatic trypsin (Sus scrofa, UniProt P00761); experiment: Proteolytic resistance to trypsin (% remaining intact peptide, RP-HPLC AUC); type: in vitro ADME; conditions: t = 0; 37° C., pH 7.8
Procedure: Trypsin: Lyophilized porcine pancreatic trypsin (Sigma: T1426) was reconstituted to afford a solution of 100 μg/mL (˜300 units/mL) in assay buffer (50 mM Tris, 10 mM CaCl2), 150 mM NaCl, 1 mM HCl, adjusted to pH 7.8) to give the enzyme stock solution. […] Ratio enzyme (units):peptide (μmoles) ˜1:11. […] Ratio enzyme (units):peptide (μ moles) ˜1.2:1.
Lyophilized porcine pancreatic trypsin (Sigma: T7409) was reconstituted to 200 μg/mL (˜300 units/mL) in assay buffer (50 mM Tris, 10 mM CaCl2), 150 mM NaCl, 1 mM HCl, adjusted to pH 7.8) to give the enzyme stock solution. […] 15 μL aliquots (˜15 μg initial peptide) of the peptide-enzyme mixture were periodically withdrawn (t=0, 30 mins, 1 hr, 2 hr, 4 hr, 8 hr, 24 hr) and quenched immediately by addition to an equal volume (15 μL) of 5% TFA (v/v) in 1:1 water/acetonitrile to arrest proteolytic activity. 20 μL aliquots (˜10 μg initial peptide) were analysed by LC/MS and/or analytical RP-HPLC as follows: LC/MS method: Agilent Polaris C8-A column (4.6×100 mm, 3 micron) eluted with a linear binary gradient of 10-90% MeCN (0.1% TFA v/v) in water (0.1% TFA v/v) over 30 mins at 1.5 mL min^−1 at ambient temperature with detection by both UV absorption at 210 nm and ionization using a Waters 3100 mass detector (ESI^+ mode). Peptide fragments deriving from enzymatic hydrolysis were identified by molecular weight, allowing location of the site of cleavage. Analytical RP-HPLC method: Agilent Polaris C8-A column (4.6×100 mm, 3 micron) eluted with a linear binary gradient of 10-90% MeCN (0.1% TFA v/v) in water (0.1% TFA v/v) over either 10 or 15 mins at 1.5 mL min^−1 at 40° C. with detection by UV absorption at 210 nm. Manual integration (AUC) allowed estimation of remaining intact peptide over the time course of the experiment.
Lyophilized porcine pancreatic trypsin (Sigma: T7409) was reconstituted to 200 μg/mL (˜300 units/mL) in assay buffer (50 mM Tris, 10 mM CaCl2), 150 mM NaCl, 1 mM HCl, adjusted to pH 7.8) to give the enzyme stock solution. […] 25 μL aliquots (˜17 μg initial peptide) of the peptide-enzyme mixture were periodically withdrawn (t=0, 30 mins, 1 hr, 2 hr, 4 hr, 8 hr, 24 hr) and quenched immediately by addition to an equal volume (25 μL) of 5% TFA (v/v) in 1:1 water/acetonitrile to arrest proteolytic activity. 25 μL aliquots (˜8 μg initial peptide) were analysed by LC/MS and/or analytical RP-HPLC as follows: LC/MS method: Agilent Polaris C8-A column (4.6×100 mm, 3 micron) eluted with a linear binary gradient of 10-90% MeCN (0.1% TFA v/v) in water (0.1% TFA v/v) over 30 mins at 1.5 mL min^−1 at ambient temperature with detection by both UV absorption at 210 nm and ionization using a Waters 3100 mass detector (ESI^+ mode). Peptide fragments deriving from enzymatic hydrolysis were identified by molecular weight, allowing location of the site of cleavage. Analytical RP-HPLC method: Agilent Polaris C8-A column (4.6×100 mm, 3 micron) eluted with a linear binary gradient of 10-90% MeCN (0.1% TFA v/v) in water (0.1% TFA v/v) over either 10 or 15 mins at 1.5 mL min^−1 at 40° C. with detection by UV absorption at 210 nm. Manual integration (AUC) allowed estimation of remaining intact peptide over the time course of the experiment.

[4] = target: T3, human GLP-1 receptor (GLP-1R) (Homo sapiens, UniProt P43220); experiment: cAMP assay, human GLP-1R cells; type: cell-based; conditions: for EC50: mean of n1 and n2
T3 construct: expressed in transfected cells; host or cells: HEK293 cells or CHO cells
Procedure, shortened: (§1)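 Peptide-stimulated cAMP measured by two-step HTRF after a 30 min room-temperature incubation with receptor-expressing cells (hGLP-1R, hGIPR at 1×10^5 cells/ml; hGCGR at 2×10^5 cells/ml). Duplicate dilutions; EC50 from 4-parameter logistic fit of % Delta F.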

[5] = target: T4, human glucagon receptor (GCGR) (Homo sapiens, UniProt P47871); experiment: cAMP assay, human GCGR cells; type: cell-based
T4 construct: expressed in transfected cells; host or cells: HEK293 cells or CHO cells
Procedure, shortened: as §1

[6] = target: T5, human glucose-dependent insulinotropic peptide receptor (GIPR) (Homo sapiens, UniProt P48546); experiment: cAMP assay, human GIPR cells; type: cell-based
T5 construct: expressed in transfected cells; host or cells: HEK293 cells or CHO cells
T5 sequence (P48546 22-466): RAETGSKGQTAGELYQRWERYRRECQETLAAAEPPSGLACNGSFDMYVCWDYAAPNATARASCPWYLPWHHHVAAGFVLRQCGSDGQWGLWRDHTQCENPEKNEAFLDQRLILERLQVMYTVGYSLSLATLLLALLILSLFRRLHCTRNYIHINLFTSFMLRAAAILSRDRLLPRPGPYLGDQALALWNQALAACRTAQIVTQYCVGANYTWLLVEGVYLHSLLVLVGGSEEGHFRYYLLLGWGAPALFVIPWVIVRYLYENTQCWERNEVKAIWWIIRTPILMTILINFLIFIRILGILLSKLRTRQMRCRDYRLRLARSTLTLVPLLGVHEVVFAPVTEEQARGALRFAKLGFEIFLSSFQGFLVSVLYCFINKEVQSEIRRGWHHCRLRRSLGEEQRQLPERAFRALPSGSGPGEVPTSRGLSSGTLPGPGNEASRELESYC
Procedure, shortened: as §1

[7] = target: T6, GLP-1R (INS1e cells) (Rattus norvegicus, UniProt P32301); experiment: INS1e assay, cAMP activity at GLP-1R; type: cell-based; conditions: for EC50: mean of n1 and n2, read-out: INS1e assay EC50 Mean pM GLP-1R
T6 construct: endogenous in cells; host or cells: INS1e cells
T6 sequence (P32301 22-463): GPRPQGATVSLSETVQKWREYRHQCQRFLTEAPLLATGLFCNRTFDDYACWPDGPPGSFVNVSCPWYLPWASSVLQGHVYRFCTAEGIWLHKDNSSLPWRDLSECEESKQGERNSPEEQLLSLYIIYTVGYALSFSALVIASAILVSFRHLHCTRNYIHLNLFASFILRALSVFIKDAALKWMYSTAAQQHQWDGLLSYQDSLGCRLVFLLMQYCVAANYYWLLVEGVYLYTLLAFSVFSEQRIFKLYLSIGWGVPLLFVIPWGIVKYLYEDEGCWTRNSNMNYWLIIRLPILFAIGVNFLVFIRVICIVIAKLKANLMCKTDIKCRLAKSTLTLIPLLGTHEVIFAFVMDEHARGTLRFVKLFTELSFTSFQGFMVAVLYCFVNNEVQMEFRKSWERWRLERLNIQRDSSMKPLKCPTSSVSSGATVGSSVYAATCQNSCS

T4 sequence (P47871 26-477): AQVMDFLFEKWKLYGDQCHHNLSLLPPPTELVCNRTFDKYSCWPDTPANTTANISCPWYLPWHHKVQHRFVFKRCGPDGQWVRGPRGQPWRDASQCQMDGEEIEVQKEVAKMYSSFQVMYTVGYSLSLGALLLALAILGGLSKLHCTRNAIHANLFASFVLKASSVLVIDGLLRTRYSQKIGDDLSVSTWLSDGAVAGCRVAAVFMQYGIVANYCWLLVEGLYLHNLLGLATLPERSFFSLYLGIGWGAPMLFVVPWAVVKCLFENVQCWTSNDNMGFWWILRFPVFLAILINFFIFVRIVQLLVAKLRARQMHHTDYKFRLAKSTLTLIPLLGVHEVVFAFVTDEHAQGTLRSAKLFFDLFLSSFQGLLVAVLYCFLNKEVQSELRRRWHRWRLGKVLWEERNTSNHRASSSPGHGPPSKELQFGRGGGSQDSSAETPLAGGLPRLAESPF
T3 sequence (P43220 24-463): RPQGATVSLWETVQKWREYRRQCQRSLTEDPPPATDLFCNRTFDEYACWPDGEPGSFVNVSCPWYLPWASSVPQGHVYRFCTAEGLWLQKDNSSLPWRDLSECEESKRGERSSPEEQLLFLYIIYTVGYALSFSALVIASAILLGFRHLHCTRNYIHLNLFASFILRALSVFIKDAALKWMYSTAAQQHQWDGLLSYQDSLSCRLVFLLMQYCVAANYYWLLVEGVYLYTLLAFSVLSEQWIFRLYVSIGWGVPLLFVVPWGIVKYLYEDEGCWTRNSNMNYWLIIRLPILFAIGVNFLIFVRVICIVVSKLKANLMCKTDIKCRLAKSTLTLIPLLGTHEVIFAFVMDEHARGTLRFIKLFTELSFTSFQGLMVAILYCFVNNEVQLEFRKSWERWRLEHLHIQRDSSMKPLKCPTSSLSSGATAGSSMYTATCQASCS
T2 sequence (P00791 60-385): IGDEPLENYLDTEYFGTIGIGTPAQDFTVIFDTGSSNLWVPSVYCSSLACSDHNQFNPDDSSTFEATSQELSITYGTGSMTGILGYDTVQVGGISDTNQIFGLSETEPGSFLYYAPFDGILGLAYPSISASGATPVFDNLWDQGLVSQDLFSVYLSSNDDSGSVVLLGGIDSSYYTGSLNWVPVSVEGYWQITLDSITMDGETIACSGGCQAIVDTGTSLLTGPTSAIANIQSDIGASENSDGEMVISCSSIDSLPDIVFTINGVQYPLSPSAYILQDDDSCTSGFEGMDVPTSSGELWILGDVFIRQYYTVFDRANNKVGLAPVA
Sequence of porcine pancreatic trypsin (P00761 9-231): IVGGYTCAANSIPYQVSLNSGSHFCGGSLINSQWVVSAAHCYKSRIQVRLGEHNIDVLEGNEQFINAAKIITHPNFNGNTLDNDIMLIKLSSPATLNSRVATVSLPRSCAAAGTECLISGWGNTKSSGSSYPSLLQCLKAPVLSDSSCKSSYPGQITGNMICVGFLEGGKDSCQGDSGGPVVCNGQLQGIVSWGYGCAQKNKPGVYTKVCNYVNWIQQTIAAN
T1 sequence (P08473 whole entry): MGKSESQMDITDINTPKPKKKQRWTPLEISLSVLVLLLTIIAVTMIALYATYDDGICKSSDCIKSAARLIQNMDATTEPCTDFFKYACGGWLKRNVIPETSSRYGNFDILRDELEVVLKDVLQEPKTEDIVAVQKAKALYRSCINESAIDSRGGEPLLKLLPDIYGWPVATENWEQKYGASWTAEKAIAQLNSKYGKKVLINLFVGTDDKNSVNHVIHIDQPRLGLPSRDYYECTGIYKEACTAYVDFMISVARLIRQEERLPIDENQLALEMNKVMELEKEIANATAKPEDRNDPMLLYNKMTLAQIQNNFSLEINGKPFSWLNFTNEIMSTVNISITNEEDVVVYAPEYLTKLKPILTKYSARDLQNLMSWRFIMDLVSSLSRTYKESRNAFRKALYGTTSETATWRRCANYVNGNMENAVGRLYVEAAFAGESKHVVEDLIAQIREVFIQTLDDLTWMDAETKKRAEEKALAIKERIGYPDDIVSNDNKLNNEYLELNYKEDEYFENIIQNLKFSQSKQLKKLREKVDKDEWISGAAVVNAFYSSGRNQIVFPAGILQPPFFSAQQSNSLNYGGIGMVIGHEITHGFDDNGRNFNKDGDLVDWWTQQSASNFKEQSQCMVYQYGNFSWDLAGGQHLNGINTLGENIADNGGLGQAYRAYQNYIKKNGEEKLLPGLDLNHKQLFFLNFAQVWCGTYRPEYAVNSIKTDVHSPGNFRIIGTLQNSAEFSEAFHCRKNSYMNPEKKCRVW

Percentage remaining peptide (AUC at specified time-point by RP-HPLC) upon incubation with neprilysin, t = 0 [1]: 100% | Percentage remaining intact peptide (AUC by RP-HPLC) upon incubation with pepsin [2]: 100% | Percentage remaining intact peptide (AUC by RP-HPLC) upon incubation with trypsin [3]: 100%
Compound: CCCCCCCCCCCCCCCC(=O)NCCCC[C@H](NC(=O)CNC(=O)CNC(=O)[C@](C)(CCCCN)NC(=O)[C@@H](NC(=O)[C@@H](NC(=O)[C@](C)(Cc1ccccc1)NC(=O)[C@H](C)NC(=O)[C@@H](NC(=O)[C@](C)(Cc1ccccc1)NC(=O)[C@H](CCC(=O)O)NC(=O)[C@](C)(CCCCN)NC(=O)[C@H](C)NC(=O)[C@H](C)NC(=O)[C@H](CCC(N)=O)NC(=O)CNC(=O)[C@H](CCC(=O)O)NC(=O)[C@H](CC(C)C)NC(=O)[C@](C)(Cc1ccccc1)NC(=O)[C@H](CO)NC(=O)[C@H](CO)NC(=O)[C@@H](NC(=O)[C@H](CC(=O)O)NC(=O)[C@H](CO)NC(=O)[C@@H](NC(=O)[C@](C)(Cc1ccccc1)NC(=O)[C@H](CO)NC(=O)CNC(=O)[C@H](CCC(=O)O)NC(=O)C(C)(C)NC(=O)[C@@H](N)Cc1c[nH]cn1)[C@@H](C)O)C(C)C)[C@@H](C)CC)C(C)C)C(C)C)C(N)=O [compound 489] (H-H[Aib]EGS[αMeF]TSDVSS[αMeF]LEGQAA[αMeK]E[αMeF]IA[αMeF]VV[αMeK]GGK(Palmitoyl)-NH2)

Percentage remaining peptide (AUC at specified time-point by RP-HPLC) upon incubation with neprilysin, t = 0 [1]: 100% | Percentage remaining intact peptide (AUC by RP-HPLC) upon incubation with pepsin [2]: 100% | Percentage remaining intact peptide (AUC by RP-HPLC) upon incubation with trypsin [3]: 100.0%
Compound: CC[C@H](C)[C@H](NC(=O)[C@H](Cc1ccccc1)NC(=O)[C@H](CCC(=O)O)NC(=O)[C@](C)(CCCCN)NC(=O)[C@H](C)NC(=O)[C@H](C)NC(=O)[C@H](CCC(=O)O)NC(=O)CNC(=O)[C@H](CCC(=O)O)NC(=O)[C@H](CC(C)C)NC(=O)[C@](C)(Cc1ccccc1)NC(=O)[C@H](CO)NC(=O)[C@](C)(CO)NC(=O)[C@@H](NC(=O)[C@H](CC(=O)O)NC(=O)[C@H](CO)NC(=O)[C@@H](NC(=O)[C@](C)(Cc1ccccc1)NC(=O)[C@H](CO)NC(=O)CNC(=O)[C@H](CCC(=O)O)NC(=O)C(C)(C)NC(=O)[C@@H](N)Cc1c[nH]cn1)[C@@H](C)O)C(C)C)C(=O)N[C@@H](CCCCNC(=O)COCCOCCNC(=O)COCCOCCNC(=O)CC[C@H](NC(=O)CCCCCCCCCCCCCCCCC(=O)O)C(=O)O)C(=O)N[C@@H](Cc1c[nH]c2ccccc12)C(=O)N[C@H](C(=O)N[C@H](C(=O)N[C@@H](CCC(=O)O)C(=O)NCC(=O)NCC(N)=O)C(C)C)C(C)C [compound 68] (H-H[Aib]EGS[αMeF]TSDV[αMeS]S[αMeF]LEGEAA[αMeK]EFIK([AEEA-AEEA-γGlu-C18 diacid])WVVEGG-NH2; N-terminus assumed)

EC50 ([4]; Table 9, bis-lipidated peptides, read-out: Primary assay EC50 Mean pM GLP-1R): 4.8 pM | pEC50 ([4]; Table 9, bis-lipidated peptides, replicate n1, read-out: Primary assay EC50 GLP-1R n1): 11.35 | pEC50 ([4]; Table 9, bis-lipidated peptides, replicate n2, read-out: Primary assay EC50 GLP-1R n2): 11.30 | pEC50 ([5]; Table 9, bis-lipidated peptides, first replicate, read-out: Primary assay EC50 Gluc-R (n1)): ≤ 7.65 | pEC50 ([5]; Table 9, bis-lipidated peptides, second replicate, read-out: Primary assay EC50 Gluc-R (n2)): ≤ 7.65 | pEC50 ([6]; Table 9, bis-lipidated peptides, first replicate, read-out: Primary assay EC50 GIP-R (n1)): ≤ 7.65 | pEC50 ([6]; Table 9, bis-lipidated peptides, second replicate, read-out: Primary assay EC50 GIP-R (n2)): ≤ 7.65 | EC50 ([7]; Table 10, bis-lipidated peptides): 1160 pM | pEC50 ([7]; Table 10, bis-lipidated peptides, replicate n1, read-out: INS1e assay EC50 GLP-1R n1): 8.96 | pEC50 ([7]; Table 10, bis-lipidated peptides, replicate n2, read-out: INS1e assay EC50 GLP-1R n2): 8.91
Compound: CCCCCCCCCCCC(=O)N[C@@H](CCC(=O)NCCOCCOCC(=O)NCCOCCOCC(=O)NCCCC[C@H](NC(=O)[C@H](Cc1ccc(O)cc1)NC(=O)[C@H](CO)NC(=O)[C@](C)(CO)NC(=O)[C@@H](NC(=O)[C@H](CC(=O)O)NC(=O)[C@H](CO)NC(=O)[C@@H](NC(=O)[C@](C)(Cc1ccccc1)NC(=O)[C@H](CO)NC(=O)CNC(=O)[C@H](CCC(=O)O)NC(=O)C(C)(C)NC(=O)[C@@H](N)Cc1c[nH]cn1)[C@@H](C)O)C(C)C)C(=O)N[C@@H](CCC(=O)O)C(=O)NCC(=O)N[C@@H](CCC(=O)O)C(=O)N[C@@H](C)C(=O)N[C@@H](C)C(=O)N[C@@](C)(CCCCN)C(=O)N[C@@H](CCC(=O)O)C(=O)N[C@@H](Cc1ccccc1)C(=O)N[C@H](C(=O)N[C@@H](CCCCNC(=O)COCCOCCNC(=O)COCCOCCNC(=O)CC[C@H](NC(=O)CCCCCCCCCCC)C(=O)O)C(=O)N[C@@H](Cc1c[nH]c2ccccc12)C(=O)N[C@H](C(=O)N[C@H](C(=O)N[C@@H](CCC(=O)O)C(=O)NCC(=O)NCC(N)=O)C(C)C)C(C)C)[C@@H](C)CC)C(=O)O [compound 268] (H-H[Aib]EGS[αMeF]TSDV[αMeS]SYK([AEEA-AEEA-γGlu-Lauroyl])EGEAA[αMeK]EFIK([AEEA-AEEA-γGlu-Lauroyl])WVVEGG-NH2; N-terminus assumed)

pEC50 ([4]; cAMP activity, first determination (n1), read-out: Primary assay EC50 GLP-1R n1): 11.54 | EC50 ([4]; cAMP activity, read-out: Mean pM GLP-1R): 3.2 pM | pEC50 ([4]; cAMP activity, second determination (n2), read-out: Primary assay EC50 GLP-1R n2): 11.46 | pEC50 ([5]; cAMP activity, second determination (n2), read-out: Primary assay EC50 Gluc-R): ≤ 7.59 | pEC50 ([6]; cAMP activity, first determination (n1), read-out: Primary assay EC50 GIP-R): ≤ 7.59 | pEC50 ([6]; cAMP activity, second determination (n2), read-out: Primary assay EC50 GIP-R): ≤ 7.59 | EC50 ([7]; Table 8, substituted and mono-lipidated peptides): 56 pM | pEC50 ([7]; Table 8, substituted and mono-lipidated peptides, replicate n1, read-out: INS1e assay EC50 GLP-1R n1): 10.45 | pEC50 ([7]; Table 8, substituted and mono-lipidated peptides, replicate n2, read-out: INS1e assay EC50 GLP-1R n2): 10.11
Compound: CCCCCCCCCCCCCCCCCC(=O)NCCOCCOCC(=O)NCCOCCOCC(=O)NCCOCCOCC(=O)NCCCC[C@H](NC(=O)[C@H](C)NC(=O)[C@H](C)NC(=O)[C@H](CCC(=O)O)NC(=O)CNC(=O)[C@H](CCC(=O)O)NC(=O)[C@H](CC(C)C)NC(=O)[C@](C)(Cc1ccccc1)NC(=O)[C@H](CO)NC(=O)[C@](C)(CO)NC(=O)[C@@H](NC(=O)[C@H](CC(=O)O)NC(=O)[C@H](CO)NC(=O)[C@@H](NC(=O)[C@](C)(Cc1ccccc1)NC(=O)[C@H](CO)NC(=O)CNC(=O)[C@H](CCC(=O)O)NC(=O)C(C)(C)NC(=O)[C@@H](N)Cc1c[nH]cn1)[C@@H](C)O)C(C)C)C(=O)N[C@@H](CCC(=O)O)C(=O)N[C@@](C)(Cc1ccccc1)C(=O)N[C@H](C(=O)N[C@@H](C)C(=O)N[C@@](C)(Cc1ccccc1)C(=O)N[C@H](C(=O)N[C@H](C(=O)N[C@@H](CCCCN)C(=O)NCC(=O)NCC(N)=O)C(C)C)C(C)C)[C@@H](C)CC [compound 56]
